In patent US7919127B2, “Pulsatilla spp. extracts effective in brain function” (priority 2005, dated 2011):
Several values for one entry are separate records, joined by “and”; a condition that tells them apart may be missing. Equal entries are not always repeated.

Columns and labels:
α-secretase = test: Increase of α-secretase activity (sAPPα amount, western blot densitometry, W4 cell line); type: cell-based; conditions: positive control, final concentration 1 mM, W4 cells, negative control average = 100.0
Method: To study the effect of 70% methanol solution fraction obtained from Example 2 on the above-mentioned APP process, an experiment was conducted as follows using W4 cell line which produces APP in large amount.
The cells of W4 cell line were treated with 70% methanol solution fraction and then cultured for about 12 hours.

[1] = system: rats treated with scopolamine; test: Passive avoidance test, scopolamine-induced memory impairment; type: in vivo, rat; conditions: oral, 30 mg/L; untreated control = 100%, scopolamine group = 0%
Excerpt: The experimental device used was a shuttle box 50 cm (W)×15 cm (L)×40 cm (H). The shuttle box was divided into two rooms via a guillotine door, where one room was a light room provided with illumination while the other room was a dark room covered entirely with a black cloth thereby allowing the difference in illuminating effect. First, a rat was placed in the light room and the guillotine door was opened while the light was being turned on. Then, the rat entered the dark room within 20 seconds to seek a dark place by instinct and as soon as the rat entered the dark room the guillotine door was closed. […] The next day, the above trained rats were placed again into the light room with the light on and allowed to enter the dark room. Here, the rats were subject to an electric shock of 0.8 mA for 3 seconds via an electronic grid installed on the bottom of the room. Twenty four hours after the above acquisition trial, the rats were again placed into the light room with the light on and allowed to enter the dark room. Here, the normal rats hesitated to enter the dark room by remembering the electric shock of the previous day. The latency time was measured by setting up the maximum latency time at 300 seconds. […]

SMILES	Relative Density (sAPPα), Average (α-secretase; average of 3 trials)	Relative Density (sAPPα) (α-secretase; individual trials)	prevention of memory impairment [1]
CCCC(=O)O[C@@H]1[C@@H](C)[C@@]2(O)[C@@H](C=C(CO)C[C@]3(O)C(=O)C(C)=C[C@@H]23)[C@@H]2C(C)(C)[C@]12OC(=O)CCC [PDBu, Phorbol 12,13-dibutyrate]	289.3	226.5 and 314.1 and 327.2	
Nc1c2c(nc3ccccc13)CCCC2 [tacrine]			35%
